Several values for one entry are separate records, joined by “and”; a condition that tells them apart may be missing. Equal entries are not always repeated. Activity calls are given as the source filed them.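 Rule for the calls: active = compounds giving half or more protection of infected cells from virus-caused growth loss, again on retest; inactive = the rest.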 Where a SMILES comes first, the peptide text is derived from it. The star is where a group is joined. ONp = O=[N+]([O-])c1ccc(O*)cc1; Cbz = O=C(OCc1ccccc1)*; OBn = c1ccc(CO*)cc1
Tested on: CEM cells HIV-1 protection, formazan growth assay
Assay: NCI AIDS Antiviral Assay
Conditions: for IC50: measured here: growth of uninfected CEM cells
Procedure, shortened: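 Screen of anti-HIV-1 activity in human CEM cells using a formazan-based growth measurement at five drug concentrations. Hits with 50% or greater protection were repeated, and confirmation required reproducible complete protection.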

O=c1[nH]c2c(nc1NC13CC4CC(CC(C4)C1)C3)c(=O)oc1ccccc12
EC50: > 2 µM | IC50: > 2 µM

O=C1C=Cc2c(-c3ccccc3)oc3cccc1c23
outcome: inactive

COc1cc(Nc2nc3c(N)cc(C(F)(F)F)cc3nc2-c2ccccc2)cc(OC)c1OC
EC50: > 15.1 µM | IC50: > 15.1 µM

S=C1NC2(CCCCC2)NC12CCCCC2
EC50: > 200 µM | IC50: > 200 µM

O=C1CCC2(CCC(=O)NC2=O)C(=O)N1
EC50: > 1200 µM | IC50: > 1200 µM

CNc1nc(SC)nc2c1c(N)nn2C
EC50: > 200 µM | IC50: > 200 µM

CC(=O)[C@@H]1[C@@H](OC(=O)CCC(C)COC2OC(CO)C(O)C(O)C2O)C[C@H]2[C@@H]3CC=C4C[C@@H](OC5OC(CO)C(OC6OC(C)C(O)C(O)C6O)C(O)C5OC5OC(C)C(O)C(O)C5O)CC[C@]4(C)[C@H]3CC[C@]12C (some centres not stated)
EC50: > 200 µM | IC50: > 200 µM

CCOC(=O)C(C)(C)Oc1ccc(N=[N+]=[N-])cc1
EC50: > 200 µM | IC50: > 200 µM

Cc1cc(C)nc(NS(=O)(=O)c2ccc(Nc3c4ccccc4nc4c(C(=O)Nc5ccc(S(=O)(=O)N=C(N)N)cc5)ccc(Cl)c34)cc2)n1
EC50: > 93.3 µM | IC50: 69.2 µM

COC1/C=C/OC2(C)Oc3c(C)c(O)c4c(c3C2=O)C(=O)C=C(NC(=O)/C(C)=C\C=C\C(C)C(OC=O)C(C)C(O)C(C)C(OC(C)=O)C1C)C4=O (configuration not stated)
EC50: > 200 µM | IC50: 7.41 µM

CCCC(OCC)(OCC)OCC
EC50: > 1320 µM | IC50: > 1320 µM

N#CC1(c2ccccc2)C(c2ccccc2)CC(O)(c2ccccc2)C(C(=O)c2ccccc2)C1c1ccccc1 (configuration not stated)
EC50: > 100 µM | IC50: 15.1 µM

CC(CN1NC12CCCC2)N1NC12CCCC2 (configuration not stated)
EC50: > 200 µM | IC50: > 200 µM

CCCCc1ccc(OC2OC(COC(C)=O)C(OC(C)=O)C(OC(C)=O)C2OC(C)=O)cc1 (configuration not stated)
EC50: > 93.3 µM | IC50: 49 µM and > 93.3 µM

CCOC(=O)/C=C1/SC(N2CCCCC2)C(=O)N1CC (configuration not stated)
EC50: > 166 µM | IC50: > 166 µM

Cc1ccc(NC(=O)C(=O)CC(=O)c2c(C)n([O-])c3ccccc3[n+]2=O)cc1
EC50: > 13.2 µM | IC50: > 13.2 µM

Cc1nc2c(ccc3c(C)c(C)c(C)nc32)c(C)c1C.Cc1nc2c(ccc3c(C)c(C)c(C)nc32)c(C)c1C.O=C1OC(C(O)C[O-])C(O)=C1O.[Cu+]
EC50: > 12.6 µM | IC50: 0.692 µM

COc1cc(C2c3cc4c(cc3OC3(N5CCCC5)CCCC23)OCO4)cc(OC)c1OC (configuration not stated)
EC50: > 550 µM | IC50: 2.82 µM

CC(C)NC(=O)/C=C/C=C/c1ccc(Cl)cc1
EC50: > 28.8 µM | IC50: > 28.8 µM

NC(=O)NNC(=O)NC12CC3CC(CC(C3)C1)C2
outcome: inactive

CN(C)c1ccc(C2SCC(=O)N2NS(=O)(=O)c2cccc(C(=O)O)c2)cc1 (configuration not stated)
EC50: > 200 µM | IC50: 79.4 µM

COc1ccc(-c2cc(=O)c3c(O)cccc3o2)cc1
EC50: > 200 µM | IC50: > 200 µM

COc1ccc(-c2n[nH]c3nc4ccccc4n3c2=O)cc1
EC50: > 200 µM | IC50: > 200 µM

CN1CC[C@]2(C)c3ccc(O)cc3CC3CCCC1C32C (some centres not stated)
outcome: inactive

COC1CC(C)([N+](=O)[O-])C(O)C(C)O1 (configuration not stated)
EC50: > 200 µM | IC50: > 200 µM

CC1(C)OCC(COC(=O)NCn2cc(-c3ccccc3)nn2)O1 (configuration not stated)
EC50: > 200 µM | IC50: > 200 µM

CC(C)(Oc1ccc(C(=O)c2ccc(Cl)cc2)cc1Cl)C(=O)Nc1c(Cl)cccc1Cl
EC50: > 7.59 µM | IC50: > 7.59 µM

C=CCc1cc(OC)c(O)c(C(=O)/C=C/c2ccc(OC)c(OC)c2)c1
EC50: > 14.8 µM | IC50: > 14.8 µM

CC(=O)OC(=C(C#N)C#N)c1nccnc1C(C)=O
EC50: > 200 µM | IC50: 11.2 µM

Nc1ncnc2c1ncn2C1OC(C(O)CO)C(O)C1O (configuration not stated)
EC50: > 200 µM | IC50: > 200 µM

COc1cccc2c1C(=O)c1c(O)c3c(c(O)c1C2=O)C[C@@](O)(C(=O)CO)C[C@@H]3OC1CC(N(C)C)C(O)C(C)O1 (some centres not stated)
EC50: > 0.2 µM | IC50: 0.0631 µM

Cc1nn(C(=O)c2c(O)cccc2Cl)c(C)c1N=Nc1ccccc1
outcome: inactive

CCOc1ccc(N=Nc2ccc(/C=C/c3ccc(N=Nc4ccc(OCC)cc4)cc3S(=O)(=O)O)c(S(=O)(=O)O)c2)cc1
EC50: 30.2 µM | IC50: > 200 µM and 195 µM

CC1Cc2c(N)nc(N3CCOCC3)nc2NC1=O (configuration not stated)
outcome: inactive

C1=CC(=NN=P(c2ccccc2)(c2ccccc2)c2ccccc2)C=C1
outcome: inactive

Cc1cn(C2OCC(CO)C2O)c(=O)[nH]c1=O (configuration not stated)
EC50: > 200 µM | IC50: > 200 µM

CC1(C)CC(=O)C(/C=N/C(N)=S)=C(O)C1
EC50: > 200 µM | IC50: > 200 µM

CCOC(=O)Nc1cc2c(c(N)n1)N=C(c1ccc3ccccc3c1)CN2
EC50: > 200 µM | IC50: 0.309 µM

O=C(CC1(O)C(=O)Nc2ccccc21)c1ccc(Cl)c(Cl)c1 (configuration not stated)
outcome: inactive

COc1cc(OCc2ccc3nc(-c4ccccc4)c(Cl)nc3c2)cc(OC)c1OC
EC50: > 200 µM | IC50: > 200 µM

CCOC(=O)/C(C#N)=C/c1ccc(Cl)cc1
EC50: > 110 µM | IC50: > 110 µM

CC1=NNC(=O)[C@H]2[C@H]1CCC1[C@@H]2CC[C@]2(C)[C@@H](O)CC[C@@H]12 (some centres not stated)
EC50: > 200 µM | IC50: > 200 µM

CCN(CC)Cc1c2c(O)c3c(O)c(C)c4c(c3c1O)C(=O)C(C)(O/C=C/C(OC)C(C)C(OC(C)=O)C(C)C(O)C(C)C(O)C(C)/C=C/C=C(\C)C(=O)N2)O4 (configuration not stated)
EC50: > 200 µM | IC50: 33.1 µM

O=CN(c1ccccc1)c1c([N+](=O)[O-])cc([N+](=O)[O-])c2c1=NCN=2
EC50: > 79.4 µM | IC50: > 79.4 µM

CCOC(=O)C(=Cc1cccc(C#N)c1)C(=O)OCC
EC50: > 132 µM | IC50: 8.51 µM

COc1ccc(-c2csc(=Nc3ccccc3)n2CC(O)c2ccc([N+](=O)[O-])cc2)cc1 (configuration not stated)
EC50: > 200 µM | IC50: 38 µM

CC1(C)OC2OC(C(COC(=O)c3ccccc3)OC(=O)c3ccccc3)C(F)C2O1 (configuration not stated)
EC50: > 43.7 µM | IC50: > 43.7 µM

CC1=Nn2c(nnc2-c2ccccc2Cl)NC(C)(C)C1
EC50: > 447 µM | IC50: 282 µM

CCCCCCCCCCCCCCCC(=O)OC1C(O)C(CO)OC(OC)C1NC(=O)N(CCCl)N=O (configuration not stated)
EC50: > 12.6 µM | IC50: > 12.6 µM

COc1cc2c(c3c1c(=O)c1ccccc1n3C)C=CC1(CCCCC1)O2
EC50: > 200 µM | IC50: 7.76 µM

CN(C)c1nc(N(C)C)nc(N(C)C)n1
EC50: > 34.7 µM | IC50: 26.3 µM

O=C(CNC(=O)C(CCC(=O)OCc1ccccc1)NC(=O)OCc1ccccc1)NCC(=O)NC(CO)C(=O)NCC(=O)Oc1ccc([N+](=O)[O-])cc1 (configuration not stated) (Cbz-E(OBn)GGSG-ONp; configuration not given here)
EC50: > 91.2 µM | IC50: > 91.2 µM

Nc1nc(Cl)c2ncn(C3OC(CO)CC3F)c2n1 (configuration not stated)
EC50: > 49 µM | IC50: > 49 µM

COc1ccc2c(-c3cc4ccccc4o3)cc(=O)oc2c1
outcome: inactive

CCOC(=S)SCC(=O)c1cccc([N+](=O)[O-])c1
outcome: inactive

O=C(O)/C=C/SCCC(=O)O
EC50: > 1410 µM | IC50: > 1410 µM

CN1C(=O)N(C)C(=O)C(Nc2ccc([N+](=O)[O-])cc2)(SCCO)C1=O
EC50: 97.7 µM | IC50: 363 µM

CN(C)c1ccc(/C=C(\C#N)c2ccc(Cl)cc2)c(Cl)c1
EC50: > 50.1 µM | IC50: 4.9 µM

CN(C)CCCNc1ccc([N+](=O)[O-])c2nc3ccccc3c(N)c12
EC50: > 200 µM | IC50: 0.209 µM

COC(=O)c1cc(Cl)ccc1NC(=O)C1CCCCC1
outcome: inactive

c1ccc2nc3cc4c(cc3nc2c1)NC12CCCCC1CC1=C(CCCC1)N42 (configuration not stated)
EC50: > 200 µM | IC50: 3.24 µM
